Assay results as given in patent EP0326637A1, “New 2-anilinophenylacetic acid derivative” (Mikasa Seiyaku Co., Ltd., priority 1988, dated 1989).
Where a name gives a salt, the structure may show the parent alone. Read-outs that look alike come from different tables or passages of the source.

Columns and labels:
[1] = system: male rats of Wistar strain; format: in vivo
Experimental: (b) Gastric ulcerogenic action:
Three groups of male rats of Wistar strain weighing 300-340 g were used, each group consisting of 7 rats; one group (Group 1) was used for control, another group (Group 2) for the administration of the compound of this invention and the other group (Group 3) for the administration of diclofenac sodium salt. After 24 hour fasting prior to the test, the compound of this invention and the diclofenac sodium salt were orally administered each in a dose of 20 mg/kg to the rats of the relevant groups. Six hours after the administration, the rats were sacrificed by decaptation and their stomachs were immediately removed. A 5% formaline solution (10 ml) was injected through the cardia into the stomach cavity and the stomach was fixed overnight in a 10% formaline solution. Each fixed stomach was cut along the greater curvature, and the inside of the stomach was investigated by the naked eye to check whether ulcers and erosions occurred or not. An ulcerogenic and erosion index was 0.71±0.42 in Group 1, 1.13±0.40 in Group 2 and 17.57±4.28 in Group 3. The number of rats having ulcers or erosions was 3/7 (42.9%) in Group 1, 4/7 (57.1%) in Group 2 and 7/7 (100%) in Group 3.

[2] = system: carrageenin-induced hind paw edema; test: Inhibitory effect on carrageenin-induced hind paw edema in rats; format: in vivo, rats of Wistar strain; details: male Wistar rats, 8 per group, oral; reference drugs at LD₅₀ amount, compound of this invention equimolar to diclofenac sodium salt; compared with Control group (P<0.01); no significant difference between the test compounds
From the text: (a) Inhibitory effect on carrageenin-induced hind paw edema in rats:
40 Male rats of Wistar strain weighing 100-130 g were divided into the following 5 groups each consisting of 8 rats: 1. Control group, 2. Group for the administration of the compound of this invention, 3. Group for the administration of diclofenac Na, 4. Group for the administration of flurubiprofen and 5. Group for the administration of indomethacin. Prior to the administration of the test compounds, plantar injections 1% carrageenin solution were made to each rat to induce hind paw edema. To each rat of the Groups 3, 4 and 5, the LD₅₀ amount of the relevant test compound was orally administered in molar amounts. The compound of the present invention was administered in an equimolar amount to the diclofenac sodium salt.

[3] = system: female mice of ICR strain; test: Analgesic and anti-capillary permeability effects according to Wittle's method (acetic acid stretching, PSB exudation); format: in vivo; details: oral 25 mg/kg, 1% acetic acid i.p., compared with control Group 3 (P<0.01), no significant difference between Groups 1 and 2; for inhibitory activities of the stretching: stretchings counted for 20 minutes; for inhibitory activities of the exudation of the colorant from the peritoneal cavity: 4% Pontamine Sky Blue i.v.
From the text: (b) Analgesic and anti-capillary permeability effects according to Wittle's method:
Three groups of female mice of ICR strain weighing 22-28 g were used, each group consisting of 10 mice; one group (Group 1) was used for the administration of the compound of this invention, another group (Group 2) for the administration of diclofenac sodium salt and the other group (Group 3) as control. […] Immediately after the intraperitoneal injection, the number of stretchings of the treated mice were counted and recorded for 20 minutes. After this observation, the mice were immediately sacrificed by dislocation of cervical vertebrae and subjected to ventrotomy. The peritoneal cavity of each mouse was washed with 5 ml of distilled water to exudate PSB in the peritoneal cavity, and the amount of the colorant exudated was measured.

[4] = system: mice of ICR strain; test: in vivo; details: oral, male and female mice
Experimental: (§1) (a) Acute oral toxicity in mice:
(§2) Groups of male and female mice of ICR strain weighing 25-35 g were used for the test, each group consisting of 6 mice. […] LD₅₀ values of the compound of this invention were calculated for each concentration according to the Litchfield-Wilcoxon's method from the number of dead mice during one week.

[5] = in vivo; details: mouse, in vivo, po, LD₅₀, oral administration, Litchfield-Wilcoxon's method, dead mice during one week
Experimental: as §1, §2

[6] = Solubility (description of the substance); format: physicochemical; details: organic solvents

## Cc1oc(=O)oc1COC(=O)Cc1ccccc1Nc1c(Cl)cccc1Cl [compound of this invention, (5-methyl-2-oxo-1,3-dioxolen-4-yl)methyl 2-(2,6-dichloroanilino)phenylacetate]
[1]; rat, in vivo, po, 20 mg/kg
  number of rats having ulcers or erosions: 4/7 (57.1%)
  ulcerogenic and erosion index: 1.13±0.40
[2]
  swelling of the edema: significantly inhibited
[3]
  inhibitory activities of the stretching: significant difference
  inhibitory activities of the exudation of the colorant from the peritoneal cavity: significant difference
[4]
  LD₅₀ values relative to those of diclofenac sodium salt: approximately 3 times
[5]; female mice
  LD50 at 168 h: 516 mg/kg
[5]; male mice
  LD50 at 168 h: 460 mg/kg
[6]
  solubility: soluble in organic solvents such as alcohols

## O=C(O)Cc1ccccc1Nc1c(Cl)cccc1Cl [diclofenac sodium salt, reference compound]
[1]; male Wistar rats, 7 per group, 24 hour fasting, oral 20 mg/kg, six hours after administration
  ulcerogenic and erosion index: 17.57±4.28
[2]
  swelling of the edema: significantly inhibited
[3]
  inhibitory activities of the stretching: significant difference
  inhibitory activities of the exudation of the colorant from the peritoneal cavity: significant difference

## CC(C(=O)O)c1ccc(-c2ccccc2)c(F)c1 (stereo not drawn) [flurubiprofen]
[2]
  swelling of the edema: significantly inhibited

## COc1ccc2c(c1)c(CC(=O)O)c(C)n2C(=O)c1ccc(Cl)cc1 [indomethacin]
[2]
  swelling of the edema: significantly inhibited
